Source: ChEMBL document CHEMBL2021800, “Aberrant cyclization affords a C-6 modified cyclic adenosine 5'-diphosphoribose analogue with biological activity in Jurkat T cells” (J Med Chem, 2012)
Active and inactive are the calls of the source. The rule behind the calls is not given here.

How the values were obtained:
Assay type in all cases: functional, cell-based
Jurkat [1] = assay: Induction of Ca2+ release in human Jurkat T cells at 10 to 30 uM using fluo-3 dye by spectrofluorometry analysis
Jurkat [2] = assay: Induction of Ca2+ release in human Jurkat T cells at 100 to 300 uM using fluo-3 dye by spectrofluorometry analysis
Jurkat [3] = assay: Inhibition of N1-cIDPR-induced Ca2+ release in human Jurkat T cells using fluo-3 dye by spectrofluorometry analysis
Jurkat [4] = assay: Inhibition of cADPR-induced Ca2+ release in human Jurkat T cells using fluo-3 dye by spectrofluorometry analysis

**Q.** O=P1(O)OC[C@H]2O[C@H]([C@H](O)[C@@H]2O)n2cnc3c(ncn3[C@@H]3O[C@H](COP(=O)(O)O1)[C@@H](O)[C@H]3O)c2=S was tested. Which Activity (Jurkat [1]) did it give?
**A.** inactive

**Q.** And the Activity (Jurkat [2])?
**A.** Active

**Q.** And the IC50 (Jurkat [3])?
**A.** 3000 nM

**Q.** And the inhibition (Jurkat [3])?
**A.** Dose-dependent effect

**Q.** And the IC50 (Jurkat [4])?
**A.** 30 µM

**Q.** And the inhibition (Jurkat [4])?
**A.** Dose-dependent effect
